Laboratory results taken from patent US5854010A, “Bioassay for detecting 2,3,7,8-tetrachlorodibenzo-para-dioxin and TCDD-like compounds and novel recombinant cell line useful therefor” (priority 1997, dated 1998).
Read-outs that look alike come from different tables or passages of the source.

Key:
H1L1.1 cells = test: TCDD-inducible luciferase activity, stably transfected clonal cell line; assay type: cell-based, mouse; conditions: 24 h
Method: (§1) Using the stabilized luciferase assay system (purchased from Promega), luciferase activity in an aliquot of the cleared lysed cell supernatant (20 μl) was determined by mixing it with 100 µl of luciferase assay reagent (purchased from Promega) and measuring the resulting luminescence in a Turner Luminometer or Dynatech ML3000 microplate luminometer (light output was integrated over 1 minute after a delay time of 30 seconds).
(§2) Using a microplate adaptation of the method reported by Bradford in "A Rapid Sensitive Method for the Quantitation of Microgram Quantities of Protein Utilizing the Principle of Protein-Dye Binding", Anal. Biochem., […], pp. 248-254 (1976), luciferase activity was standardized to the protein concentration of the supernatant (with bovine serum albumin as the protein standard). Because of instrument differences in luminescence measurement and data output, luciferase activity was determined as relative light units (RLU) per microgram of protein, which was converted to milligram of protein as reported in the Tables below.
(§3) Cells from each of these five stable cell lines were cotransfected with the vectors, pGudLuc1.1 and pSV2neo (15 μg of each). Following a 24 hour incubation, the cotransfected cells were split 1 to 10 and replated into a selective medium containing the antibiotic, G418. After 2-3 weeks of growth, individual cell colonies were identified and isolated. Although numerous inducible cell clones were isolated, many contained high constitutive luciferase activity, possibly due to integration of the plasmid (or a truncated form of the plasmid) into a genomic site which allows the promoter to be continually active. […] The clones with the greatest ratio of inducible to constitutive luciferase activity were selected for further characterization.
(§4) More particularly, isolated clones were grown until confluent, and then incubated in the absence or presence of TCDD (1 nM solubilized in DMSO) for 24 hours. After the incubation, luciferase activity was determined as described above.

MLEL1.1c1 cells = test: as above; assay type: cell-based, mouse; conditions: 24 h
Method: as §1, §2, §3, §4

G16L1.1c8 cells = test: as above; assay type: cell-based, guinea pig; conditions: 24 h
Method: as §1
as §2, with “below. […]” for “below.”
as §4

[1] = tested on: guinea pig intestinal adenocarcinoma GPC16 cells; test: TCDD-inducible luciferase activity, transient transfection with pGudLuc1.1; assay type: cell-based
Method: (§5) In general, the expression vectors pGudLuc1.0 and pGudLuc1.1 were prepared as follows. A 1330-bp HindIII fragment or an 1810-bp HindIII fragment isolated from the plasmid, pMpap1.0 or pMpap1.1, respectively (see, El-Fouly et al., supra), was subcloned into the HindIII site immediately upstream of the luciferase gene in the plasmid pGL2-basic (purchased from Promega).
(§6) More specifically, the following cells were obtained from the source indicated. Wild-type and AhR-defective (BPRc1 and TAO, respectively) mouse hepatoma (Hepa1c1c7) cells (Hepa1), derived from a C57B1 mouse liver tumor, were obtained from J. P. Whitlock, Jr. (Stanford University). These cells were grown as previously described by Miller et al. in "Biochemical and Genetic Analysis of Variant Mouse Hepatoma Cells Defective in the Induction of Benzo(a)pyrene Metabolizing Enzyme Activity", J. Biol. Chem., Vol. 258, pp. 3523-3527 (1983). Additionally, mouse hepatoma (MLE/BV) cells, derived from a spontaneously immortalized C3H/HeN mouse liver cell, were obtained from B. V. Madhukar (Indiana University School of Medicine, Indianapolis, Ind.) and were grown as described for the Hepa1 cells. Rat hepatoma (H4IIe) cells, guinea pig intestinal adenocarcinoma (GPC16) cells, hamster lung (AHL) cells, human hepatoma (HepG2) cells, human breast tumor (MCF7) cells, and human intestinal epithelial (LS180) cells were obtained from the American Type Culture Collection (Rockville, Md.). Until transfection, all of the cells were maintained according to their respective cell-type-specific culture protocols.
(§7) Transfection was accomplished as follows. Using polybrene as previously described by Helferich et al. in "Photooxidized Products of Tryptophan Can Act as Dioxin Agonists", Mol. Pharmacol., Vol. 40, pp. 674-678 (1991), plates of cells (approximately 80% confluent) were transiently transfected with the desired plasmid (15 μg). Then, the transfected cells were allowed to grow for 48 hours, followed by the addition of either DMSO (1 μl/ml) or TCDD (1 nM) solubilized in DMSO, which was followed by incubation for 24 hours. Next, the plates were transferred onto ice, and the media were removed, after which the plates were rinsed twice with cold PBS. Then, 200 μl of luciferase lysis buffer (purchased from Promega) was used to lyse the cells. The lysed cell samples were collected and transferred into a microfuge tube. Cell debris was pelleted by centrifugation, and the supernatants were collected. The supernatant samples were assayed for TCDD-inducible luciferase activity in the following manner.
as §1, §2

[2] = tested on: human intestinal epithelial LS180 cells; test: as above; assay type: cell-based
Method: as §5, §6, §7, §1, §2

rat hepatoma H4IIE cells = test: as above; assay type: cell-based
Method: as §5, §6, §7, §1, §2

[3] = tested on: human breast tumor MCF7 cells; test: as above; assay type: cell-based
Method: as §5, §6, §7, §1, §2

hamster lung AHL cells = test: as above; assay type: cell-based
Method: as §5, §6, §7, §1, §2

[4] = tested on: mouse hepatoma Hepa1c1c7 cells (wild type); test: as above; assay type: cell-based
Method: as §5, §6, §7, §1, §2

[5] = tested on: Hepa1-TAO cells (reduced levels of AhR); test: as above; assay type: cell-based, mouse
Method: as §5, §6, §7, §1, §2

MLE-BV cells = test: as above; assay type: cell-based, mouse
Method: as §5, §6, §7, §1, §2

[6] = tested on: Hepa1-BPRc1 cells (defective arnt protein); test: as above; assay type: cell-based, mouse
Method: as §5, §6, §7, §1, §2

[7] = tested on: Human 101L cells (recombinant HepG2), luciferase; conditions: Table 3 comparison, Postlind et al.; read-out: ED50 (the source's name); cited from earlier work
[8] = Mus musculus, TCDD 1 nM vs DMSO
[9] = TCDD 1 nM, mean ± SD of triplicate assays
[10] = Mus musculus, Luc1.1, TCDD 1 nM vs DMSO

For `Clc1cc2c(cc1Cl)Oc1cc(Cl)c(Cl)cc1O2` [TCDD, 2,3,7,8-tetrachlorodibenzo-para-dioxin], the fold induction (H1L1.1 cells; [8]) was 74, the “Luciferase activity, TCDD in DMSO” value (H1L1.1 cells; [9]) was 5.92 ± 0.70 RLU/mg protein and the fold induction (MLEL1.1c1 cells; [8]) was 14. The “Luciferase activity, TCDD in DMSO” value (MLEL1.1c1 cells; [9]) was 0.29 ± 0.05 RLU/mg protein, the fold induction (G16L1.1c8 cells; Cavia porcellus, TCDD 1 nM vs DMSO) was 25 and the “Luciferase activity, TCDD in DMSO” value (G16L1.1c8 cells; [9]) was 0.76 ± 0.03 RLU/mg protein. For the same compound, the fold induction ([1]; Cavia porcellus, Luc1.1, TCDD 1 nM vs DMSO) was 7.6, the “Luciferase activity, TCDD in DMSO” value ([1]; Luc1.1, TCDD 1 nM, 24 h) was 28.8 RLU/mg protein and the fold induction ([2]; Homo sapiens, LS180, Luc1.1, TCDD 1 nM vs DMSO) was 18.6. The “Luciferase activity, TCDD in DMSO” value ([2]; Luc1.1, TCDD 1 nM, 24 h) was 26.0 RLU/mg protein, the “Luciferase activity, TCDD in DMSO” value (rat hepatoma H4IIE cells; Luc1.1, TCDD 1 nM, 24 h) was 34.2 RLU/mg protein and the fold induction (rat hepatoma H4IIE cells; Rattus norvegicus, H4IIE, Luc1.1, TCDD 1 nM vs DMSO) was 28.5. For the same compound, the fold induction ([3]; Homo sapiens, MCF7, Luc1.1, TCDD 1 nM vs DMSO) was 33.4, the “Luciferase activity, TCDD in DMSO” value ([3]; Luc1.1, TCDD 1 nM, 24 h) was 63.5 RLU/mg protein and the “Luciferase activity, TCDD in DMSO” value (hamster lung AHL cells; Luc1.1, TCDD 1 nM, 24 h) was 174 RLU/mg protein. For the same compound, the fold induction (hamster lung AHL cells; Mesocricetus auratus, Luc1.1, TCDD 1 nM vs DMSO) was 5.8, the fold induction ([4]; Luc1.1, TCDD 1 nM vs DMSO, 0.001 µM) was 60 Fold and the “Luciferase activity, TCDD in DMSO” value ([4]; Luc1.1, TCDD 1 nM, 24 h, mean of triplicate transfections) was 12.1 RLU/mg protein. The fold induction ([4]; Mus musculus, Hepa-1c1c7, Luc1.1, TCDD 1 nM vs DMSO, read-out: Fold induction) was 60.5, the “Luciferase activity, TCDD in DMSO” value ([5]; Luc1.1, TCDD 1 nM, 24 h) was 1.8 RLU/mg protein and the fold induction [5, 10] was 4.5. The “Inducibility of luciferase activity” value ([5]; pGudLuc1.1, TCDD 1 nM) was “reduced inducibility”, the “Luciferase activity, TCDD in DMSO” value (MLE-BV cells; Luc1.1, TCDD 1 nM, 24 h) was 13.2 RLU/mg protein and the fold induction (MLE-BV cells; [10]) was 66. For the same compound, the “Luciferase activity, TCDD in DMSO” value ([6]; Luc1.1, TCDD 1 nM, 24 h) was 0.8 RLU/mg protein, the fold induction [6, 10] was 1.6 and the “Induction of luciferase activity” value ([6]; pGudLuc1.1, TCDD 1 nM) was “failure of TCDD treatment to induce luciferase activity”. The EC50 [7] was 0.35 nM.
